Reference: patent US10072006B2 (MUTABILIS, priority 2015, dated 2018)
In brackets after ≈: the same amount, converted by molar mass.

Legend:
TEM-1 = target: T1, TEM-1 (Escherichia coli, UniProt P62593); experiment: β-lactamase inhibitory activity, determination of IC50 (nitrocefin hydrolysis); assay type: biochemical; conditions: class (A), 30 min pre-incubation
T1 construct: made in house; host or cells: E. coli

SHV-1 = target: T2, SHV-1 (Klebsiella pneumoniae, UniProt P0AD64); experiment: as above; assay type: biochemical
T2 construct: made in house; host or cells: E. coli

CTX-M-15 = target: T3, CTX-M-15 (Escherichia coli, UniProt Q9EXV5); experiment: as above; assay type: biochemical
T3 construct: made in house; host or cells: E. coli

KPC-2 = target: T4, KPC-2 (Klebsiella pneumoniae, UniProt Q9F663); experiment: as above; assay type: biochemical
T4 construct: made in house; host or cells: E. coli

OXA-1 = target: T5, OXA-1 (Escherichia coli, UniProt P13661); experiment: as above; assay type: biochemical
T5 construct: made in house; host or cells: E. coli

OXA-11 = target: T6, OXA-11 (Pseudomonas aeruginosa, UniProt Q06778); experiment: as above; assay type: biochemical
T6 construct: made in house; host or cells: E. coli

OXA-15 = target: T7, OXA-15 (Pseudomonas aeruginosa, UniProt Q51574); experiment: as above; assay type: biochemical
T7 construct: made in house; host or cells: E. coli

OXA-48 = target: T8, OXA-48 (Klebsiella pneumoniae, UniProt Q6XEC0); experiment: as above; assay type: biochemical
T8 construct: made in house; host or cells: E. coli

[1] = system: E. cloacae P99 (Derepressed ampC); experiment: MIC of compounds and synergy with ceftazidime (broth microdilution); assay type: cell-based; conditions: strain P99 (E. cloacae)
Method in brief: (§1)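 MICs were scored by eye after 16-20 h at 35° C (ambient air), using compounds spotted from DMSO.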

[2] = system: E. coli 131119 (TEM-1, OXA-48); experiment: as above; assay type: cell-based; conditions: Escherichia coli, 18 h; strain 131119 (E. coli); read-out: MIC compounds of the invention alone
Method in brief: as §1

E. coli RGN238 (OXA-1) = experiment: as above; assay type: cell-based; conditions: Escherichia coli, 18 h; strain RGN238 (E. coli); read-out: MIC compounds of the invention alone
Method in brief: as §1

[3] = system: K. pneumoniae 6299 (TEM-1, SHV-11, OXA-163); experiment: as above; assay type: cell-based; conditions: strain 6299 (K. pneumoniae)
Method in brief: as §1

[4] = system: K. pneumoniae BAA-1898 (TEM-1, SHV-11, SHV-12, KPC-2); experiment: as above; assay type: cell-based; conditions: strain BAA-1898 (K. pneumoniae)
Method in brief: as §1

[5] = system: P. aeruginosa CIP105250 (OXA-15); experiment: as above; assay type: cell-based; conditions: strain CIP105250 (P. aeruginosa)
Method in brief: as §1

[6] = system: P. aeruginosa CIP107051 (TEM-24); experiment: as above; assay type: cell-based; conditions: strain CIP107051 (P. aeruginosa)
Method in brief: as §1

[7] = system: P. aeruginosa UFR35 (OXA-23); experiment: as above; assay type: cell-based; conditions: MIC of ceftazidime with compound fixed at 4 μg/mL; strain UFR35 (P. aeruginosa)
Method in brief: as §1

[8] = system: P. aeruginosa UFR47 (VIM-1); experiment: as above; assay type: cell-based; conditions: MIC of ceftazidime with compound fixed at 4 μg/mL; strain UFR47 (P. aeruginosa)
Method in brief: (§2)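 First, test compounds prepared in DMSO are spotted on sterile plates. Next, plates incubate at 35° C under ambient air for 16-20 h. Finally, wells are inspected by eye, and the lowest concentration without growth gives the MIC.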

[9] = system: P. aeruginosa UFR48 (VIM-2); experiment: as above; assay type: cell-based; conditions: MIC of ceftazidime with compound fixed at 4 μg/mL; strain UFR48 (P. aeruginosa)
Method in brief: as §1

[10] = system: P. aeruginosa UFR59 (IMP-29); experiment: as above; assay type: cell-based; conditions: MIC of ceftazidime with compound fixed at 4 μg/mL; strain UFR59 (P. aeruginosa)
Method in brief: as §1

[11] = system: P. aeruginosa UFR90 (Derepressed ampC, OprD-); experiment: as above; assay type: cell-based; conditions: MIC of ceftazidime with compound fixed at 4 μg/mL; strain UFR90 (P. aeruginosa)
Method in brief: as §1

[12] = system: P. aeruginosa UFR92 (Derepressed ampC, OprD-); experiment: as above; assay type: cell-based; conditions: MIC of ceftazidime with compound fixed at 4 μg/mL; strain UFR92 (P. aeruginosa)
Method in brief: as §2

[13] = system: P. aeruginosa UFR93 (Derepressed ampC, OprD-, MexAB+, MexXY+); experiment: as above; assay type: cell-based; conditions: MIC of ceftazidime with compound fixed at 4 μg/mL; strain UFR93 (P. aeruginosa)
Method in brief: as §1

[14] = system: E. coli 190317 (TEM-1, SHV-12, CTX-M-15, OXA-1); experiment: microbe, parasite or virus in culture; assay type: cell-based
Description: Briefly, compounds alone according to the invention were prepared in DMSO and spotted (2 μL each) on sterile polystyrene plates (Corning, 3788). […] Microplates were incubated for 16-20 h at 35° C. in ambient air. The MIC of the compounds was defined as the lowest concentration of said compounds that prevented bacterial growth as read by visual inspection.

AmpC (P99) = AmpC (P99) (Enterobacter cloacae, UniProt P05364); experiment: biochemical
AmpC (PAE) = AmpC (PAE) (Pseudomonas aeruginosa, UniProt P24735); experiment: biochemical
[15] = MIC of ceftazidime with compound fixed at 4 μg/mL
[16] = Pseudomonas aeruginosa, 18 h, read-out: MIC compounds of the invention alone

Q: Which results are given for `Cn1cc(C2=C[C@@H](CN)N3C[C@@H]2N(OS(=O)(=O)O)C3=O)cnc1=O` (relative stereo) [Example 6]?
A: IC50 (TEM-1): 0.28 µM; IC50 (SHV-1): 0.34 µM; IC50 (CTX-M-15): 0.51 µM; IC50 (KPC-2): 5.1 µM; IC50 (OXA-1): 1.2 µM; IC50 (OXA-11): 1.6 µM; IC50 (OXA-15): 0.068 µM; IC50 (OXA-48): 0.84 µM; MIC ([1]; Enterobacter cloacae, 18 h, read-out: MIC compounds of the invention alone): 0.125 µg/mL; MIC, combination of CAZ and compounds of the invention [1, 15]: ≤0.125 µg/mL; MIC [2]: > 32 µg/mL; MIC (E. coli RGN238 (OXA-1)): > 32 µg/mL; MIC ([3]; Klebsiella pneumoniae, 18 h, read-out: MIC compounds of the invention alone): > 32 µg/mL; MIC, combination of CAZ and compounds of the invention [3, 15]: 4 µg/mL; MIC ([4]; Klebsiella pneumoniae, BAA1898, read-out: MIC compounds of the invention alone): > 32 µg/mL; MIC, combination of CAZ and compounds of the invention [4, 15]: 4 µg/mL; MIC, combination of CAZ and compounds of the invention [5, 15]: 64 µg/mL; MIC [5, 16]: 32 µg/mL; MIC, combination of CAZ and compounds of the invention [6, 15]: 32 µg/mL; MIC [6, 16]: 16 µg/mL; MIC, combination of CAZ and compounds of the invention [7]: <0.25 µg/mL; MIC, combination of CAZ and compounds of the invention [8]: <0.25 µg/mL; MIC, combination of CAZ and compounds of the invention [9]: <0.25 µg/mL; MIC, combination of CAZ and compounds of the invention [10]: <0.25 µg/mL; MIC, combination of CAZ and compounds of the invention [11]: <0.25 µg/mL; MIC, combination of CAZ and compounds of the invention [12]: <0.25 µg/mL; MIC, combination of CAZ and compounds of the invention [13]: <0.25 µg/mL; MIC ([14]; Escherichia coli, 18 h, read-out: MIC compounds of the invention alone): 0.125 µg/mL (≈ 0.35 µM); MIC, combination of CAZ and compounds of the invention ([14]; MIC of ceftazidime with compound fixed at 4 μg/mL, strain 190317 (E. coli)): <0.125 µg/mL; IC50 (AmpC (P99)): 6.4 µM; IC50 (AmpC (PAE)): 38 µM
